Test [1] addresses T1, Thrombopoietin receptor (Homo sapiens) (UniProt P40238).
T1 sequence (whole entry): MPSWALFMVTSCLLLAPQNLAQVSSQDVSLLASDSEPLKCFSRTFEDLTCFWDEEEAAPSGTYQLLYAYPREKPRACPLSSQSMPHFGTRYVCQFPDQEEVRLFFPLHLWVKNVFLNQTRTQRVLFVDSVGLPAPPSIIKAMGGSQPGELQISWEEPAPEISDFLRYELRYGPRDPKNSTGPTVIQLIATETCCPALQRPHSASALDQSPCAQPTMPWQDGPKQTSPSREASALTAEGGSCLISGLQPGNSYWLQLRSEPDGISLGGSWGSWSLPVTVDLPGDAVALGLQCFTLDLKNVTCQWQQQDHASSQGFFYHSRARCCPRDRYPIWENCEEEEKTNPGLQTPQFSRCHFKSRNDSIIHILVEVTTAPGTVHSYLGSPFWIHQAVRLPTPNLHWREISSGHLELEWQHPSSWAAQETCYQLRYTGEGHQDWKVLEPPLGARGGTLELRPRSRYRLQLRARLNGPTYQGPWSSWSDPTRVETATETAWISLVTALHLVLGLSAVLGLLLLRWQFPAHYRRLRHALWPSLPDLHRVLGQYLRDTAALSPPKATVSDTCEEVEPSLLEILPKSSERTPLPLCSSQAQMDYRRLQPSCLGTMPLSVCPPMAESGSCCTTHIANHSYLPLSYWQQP
In words: Agonist activity at human thrombopoietin receptor expressed in mouse Ba/F3 cells in presence of 1 mM Zinc by kinase activation based reporter gene assay. It is filed as functional, cell-based. The conditions noted are these: BaF3.

The target of test [2] is T1, Thrombopoietin receptor (Homo sapiens). In words: Agonist activity at human thrombopoietin receptor expressed in mouse Ba/F3 cells in presence of 1 mM Zinc by kinase activation based reporter gene assay relative to 30 ng/mL thrombopoietin. It is filed as functional, cell-based. The conditions noted are these: BaF3.
For test [3] the target is unchanged. In words: Agonist activity at human thrombopoietin receptor expressed in mouse Ba/F3 cells by kinase activation based reporter gene assay relative to 30 ng/mL thrombopoietin. Type of test: functional, cell-based. The note with it: BaF3.
Test [4] deals with T2, Thrombopoietin receptor (Homo sapiens, UniProt P40238).
T2 sequence (P40238 whole entry): T1 sequence (whole entry)
The experiment in a line: Agonist activity at human thrombopoietin receptor expressed in mouse Ba/F3 cells by kinase activation based reporter gene assay. It is filed as functional, cell-based, BaF3.

The nature of test [5]: Thrombopoietic activity in human megakaryocytes assessed as induction of cell differentiation by CFU-mega assay. Type of test: functional, cell-based.

Consider `CCCCc1ccc(-c2ccc3c4c([nH]c3c2F)-c2ccc(NS(C)(=O)=O)cc2C4)cc1`, for which the EC50 in test [1] is 166 nM. The Efficacy in test [2] stood at 95%.
On to `CCCCc1ccc(-c2ccc3c4c([nH]c3c2F)-c2ccc(C(=O)O)cc2C4(C)C)cc1`, for which the Efficacy in test [3] is 118%. This compound showed a 50% effective concentration (EC50) in test [4] of 111 nM.
With `CCCCc1ccc(-c2ccc3c4c([nH]c3c2F)-c2cc(N)c(C(=O)O)cc2C4)cc1`, the EC50 in test [1] came to 341 nM. Besides, the Efficacy in test [2] came out at 70%.
Turning to `CCCCc1ccc(-c2ccc3c4c([nH]c3c2)-c2ccc(C(N)=O)cc2C4)cc1`, the Efficacy in test [3] came out at 118%. This compound gave a half-maximal effective concentration (EC50) in test [4] of 86 nM.
The matching figures for `Cc1cc(-c2ccc3c4c([nH]c3c2F)-c2ccc(C(N)=O)cc2OC4)ccc1F`: 83% and 1430 nM.
On the same counts, the results for `CCCCc1ccc(-c2ccc3cc(-c4ccc(C(=O)O)cc4)[nH]c3c2F)cc1` are 112% and 117 nM.
The matching figures for `Cc1cc(-c2ccc3c4c([nH]c3c2F)-c2ccc(C(N)=O)cc2C4)ccc1F`: 105% and 277 nM.
In the case of `CCCCc1ccc(-c2ccc3c(C(C)C)c(-c4ccc(C(=O)O)c(O)c4)[nH]c3c2F)cc1`, the Efficacy in test [3] came out at 70%. In addition, the EC50 in test [4] is > 1000 nM.
On the same counts, the results for `CCCCc1ccc(-c2ccc3c4c([nH]c3c2F)-c2ccc(C(=O)O)cc2C4)cc1` are 151% and 37 nM.
On to `CCCCc1ccc(-c2ccc3c4c([nH]c3c2)-c2ccc(C(=O)O)cc2S(=O)(=O)C4)cc1`, for which, in test [3], the Efficacy came out at 115%. The compound further displayed an EC50 in test [4] of 449 nM.
The matching figures for `CCCCc1ccc(-c2ccc3c(C)c(-c4ccc(C(=O)O)c(O)c4)[nH]c3c2F)cc1`: 119% and 116 nM.
The matching figures for `CCCCc1ccc(-c2ccc3c(CC)c(-c4ccc(C(=O)O)c(O)c4)[nH]c3c2F)cc1`: 97% and 228 nM.
Consider `CCCCc1ccc(-c2ccc3c4c([nH]c3c2F)-c2ccc(NC(N)=O)cc2C4)cc1`, for which, in test [1], the 50% effective concentration (EC50) came out at 124 nM. In addition, the Efficacy in test [2] is 128%.
Turning to `CCCCc1ccc(-c2ccc3c4c([nH]c3c2)-c2ccc(C(=O)O)cc2CC4)cc1`, the response in test [4] was half-maximal at 111 nM (EC50).
Consider `CCCCc1ccc(-c2ccc3nc(-c4ccc(C(=O)O)cc4)[nH]c3c2)cc1`, for which, in test [3], the Efficacy came out at 83%. The compound also displayed a concentration giving a half-maximal response (EC50) in test [4] of 1260 nM.
With `Cc1cc(-c2ccc3c4c([nH]c3c2F)-c2ccc(C(=O)O)cc2C4)ccc1F`, the Efficacy in test [3] came to 144%. The same compound returned an EC50 in test [4] of 26 nM.
The matching figures for `CC1=NN(c2ccc(C)c(C)c2)C(=O)/C1=N\Nc1cccc(-c2cccc(C(=O)O)c2)c1O` [ELTROMBOPAG]: 127% and 38 nM.
For `CCCCc1ccc(-c2ccc3c4c([nH]c3c2)-c2ccc(C(=O)O)cc2CCC4)cc1`, in test [1], the concentration for a half-maximal effect (EC50) is 332 nM. For the same compound, the Efficacy in test [2] worked out at 71%.
Consider `CCCCc1ccc(-c2ccc3cc(-c4ccc(C(N)=O)cc4)[nH]c3c2F)cc1`, for which, in test [3], the Efficacy stood at 81%. Also, the 50% effective concentration (EC50) in test [4] worked out at 160 nM.
As to `CCCCc1ccc(-c2ccc3c4c([nH]c3c2F)-c2ccc(NC(=O)CO)cc2C4)cc1`, in test [1], the 50% effective concentration (EC50) is 87 nM. Further, in test [2], the Efficacy came out at 98%.
As to `CCCCc1ccc(-c2ccc3c4c([nH]c3c2F)-c2ccc(NC(C)=O)cc2C4)cc1`, the Efficacy in test [3] amounted to 117%. The EC50 in test [4] was found to be 25 nM; in test [5], 300 nM.
As for `CCCCc1ccc(-c2ccc3c4c([nH]c3c2F)-c2cc(NC(C)=O)c(C(=O)O)cc2C4)cc1`, in test [3], the Efficacy was 90%. In test [4], the half-maximal effective concentration (EC50) stood at 376 nM.
The matching figures for `CCCCc1ccc(-c2ccc3nc(-c4ccc(C(=O)O)c(O)c4)[nH]c3c2)cc1`: 121% and 179 nM.
For `CCCCc1ccc(-c2ccc3c4c([nH]c3c2)-c2ccc(C(=O)O)cc2C4)cc1`, the Efficacy in test [3] came out at 91%. This compound also displayed an EC50 in test [4] of 160 nM.
Consider `CCCCc1ccc(-c2ccc3c4c([nH]c3c2F)-c2ccc(NC(=O)C(=O)O)cc2C4)cc1`, for which the Efficacy in test [3] was 110%. Further, the EC50 in test [4] is 21 nM.
The matching figures for `CCCCc1ccc(-c2ccc3cc(-c4ccc(C(=O)O)c(O)c4)[nH]c3c2F)cc1`: 141% and 51 nM.
In the case of `Cc1cc(-c2ccc3c4c([nH]c3c2F)-c2ccc(C(N)=O)cc2COC4=O)ccc1F`, the Efficacy in test [3] is 0%. For the same compound, the EC50 in test [4] is > 30000 nM.

The record behind these values is ChEMBL document CHEMBL1141709, “Optimization of small molecule agonists of the thrombopoietin (Tpo) receptor derived from a benzo[a]carbazole hit scaffold” (Bioorg Med Chem Lett, 2008).
